Test results as given in PubChem BioAssay (NCI).
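Where inhibition never reached the appropriate level, the endpoint shown equals the highest concentration tested. Otherwise, values were interpolated linearly from a five-concentration, 48-hour dose response in 96-well plates. At the GI50, growth is halved. TGI denotes the concentration required for complete inhibition of growth.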

Tests used:
Test in all cases: inhibition of tumour cell growth, NCI panel, 48 h
MDA-MB-231 breast = system: MDA-MB-231 breast
MOLT-4 leukemia = system: MOLT-4 leukemia
OVCAR-3 ovarian = system: OVCAR-3 ovarian
SF-268 CNS = system: SF-268 CNS
SN12C renal = system: SN12C renal
DU-145 prostate = system: DU-145 prostate
T-47D breast = system: T-47D breast
MALME-3M melanoma = system: MALME-3M melanoma
SF-539 CNS = system: SF-539 CNS
HOP-92 NSCLC = system: HOP-92 NSCLC
SK-MEL-28 melanoma = system: SK-MEL-28 melanoma
SF-295 CNS = system: SF-295 CNS
TK-10 renal = system: TK-10 renal
HCT-116 colon = system: HCT-116 colon
HOP-62 NSCLC = system: HOP-62 NSCLC
HL-60(TB) leukemia = system: HL-60(TB) leukemia
RXF 393 renal = system: RXF 393 renal
NCI-H522 lung = system: NCI-H522 lung
CAKI-1 renal = system: CAKI-1 renal
SK-MEL-5 melanoma = system: SK-MEL-5 melanoma
MCF7 breast = system: MCF7 breast
OVCAR-5 ovarian = system: OVCAR-5 ovarian
A498 renal = system: A498 renal
786-0 renal = system: 786-0 renal
SNB-19 CNS = system: SNB-19 CNS
SNB-75 CNS = system: SNB-75 CNS
ACHN renal = system: ACHN renal
EKVX NSCLC = system: EKVX NSCLC
SR leukemia = system: SR leukemia

O=c1cc(NCC(O)CN2CCCC2)n(Cc2ccccc2)c(=O)n1Cc1ccccc1 (configuration not stated)
TGI (MDA-MB-231 breast): 70.6 µM
GI50 (MOLT-4 leukemia): 24.3 µM
TGI (MOLT-4 leukemia): 72.8 µM
GI50 (OVCAR-3 ovarian): > 100 µM
TGI (OVCAR-3 ovarian): > 100 µM
GI50 (SF-268 CNS): 47.5 µM
TGI (SF-268 CNS): > 100 µM
GI50 (SN12C renal): > 100 µM
TGI (SN12C renal): > 100 µM
GI50 (DU-145 prostate): 87 µM
TGI (DU-145 prostate): > 100 µM
GI50 (T-47D breast): 52.4 µM
TGI (T-47D breast): > 100 µM
GI50 (MALME-3M melanoma): 22.6 µM
TGI (MALME-3M melanoma): 61.7 µM
GI50 (SF-539 CNS): > 100 µM
TGI (SF-539 CNS): > 100 µM
GI50 (HOP-92 NSCLC): 14.9 µM
TGI (HOP-92 NSCLC): > 100 µM
GI50 (SK-MEL-28 melanoma): 16.7 µM
TGI (SK-MEL-28 melanoma): 34.6 µM
GI50 (SF-295 CNS): 46.6 µM
TGI (SF-295 CNS): > 100 µM
GI50 (TK-10 renal): > 100 µM
TGI (TK-10 renal): > 100 µM
GI50 (HCT-116 colon): 13.6 µM
TGI (HCT-116 colon): 33.3 µM
GI50 (HOP-62 NSCLC): 18.7 µM
TGI (HOP-62 NSCLC): 54.4 µM
GI50 (HL-60(TB) leukemia): 7.81 µM
TGI (HL-60(TB) leukemia): 30.3 µM
GI50 (RXF 393 renal): 46 µM
TGI (RXF 393 renal): > 100 µM
GI50 (NCI-H522 lung): 79.3 µM
TGI (NCI-H522 lung): > 100 µM
GI50 (CAKI-1 renal): > 100 µM
TGI (CAKI-1 renal): > 100 µM
GI50 (SK-MEL-5 melanoma): 17.1 µM
TGI (SK-MEL-5 melanoma): 32.2 µM
GI50 (MCF7 breast): 19.1 µM
TGI (MCF7 breast): 34.8 µM
GI50 (OVCAR-5 ovarian): > 100 µM
TGI (OVCAR-5 ovarian): > 100 µM
GI50 (A498 renal): > 100 µM
TGI (A498 renal): > 100 µM
GI50 (786-0 renal): 32.3 µM
TGI (786-0 renal): > 100 µM
GI50 (SNB-19 CNS): > 100 µM
TGI (SNB-19 CNS): > 100 µM
GI50 (SNB-75 CNS): 25.3 µM
TGI (SNB-75 CNS): 81.5 µM
GI50 (ACHN renal): > 100 µM
TGI (ACHN renal): > 100 µM
GI50 (EKVX NSCLC): > 100 µM
TGI (EKVX NSCLC): > 100 µM
GI50 (SR leukemia): 0.847 µM
TGI (SR leukemia): 31 µM
